Data taken from PMC10794144, “A novel antibiotic class targeting the lipopolysaccharide transporter” (Nature, 2024).
Converted amounts (≈) assume the structure as drawn. Like-named read-outs stand apart in the source and are kept apart here. Marks after values point to notes of the source that are not given here.

Tested on: A. baumannii
Experiment: MIC, broth microdilution in CAMHB supplemented with human serum, read at 100% growth inhibition
Assay type: cell-based, Acinetobacter baumannii
Conditions: for MIC: read-out: MIC
Experimental: MIC determinations were performed using the broth microdilution method and in line with CLSI guidelines M07 and M100 (refs. [37],[38]). Bacterial inocula were prepared by diluting a 0.5 McFarland suspension in CAMHB or lysogeny broth (LB) specifically for A. baylyi isolates. […] MIC values of all of the tested antibiotics were read as the lowest compound concentration inhibiting bacterial growth by naked eye or beyond which the OD600 ceased to decrease.

Compound: CN1C(=O)[C@H](CCCCN)NC(=O)[C@H](CCCN)NCc2cccnc2Sc2cccc(-c3ccc(C(=O)O)cc3)c2CNC(=O)[C@@H]1Cc1c[nH]c2ccccc12 [zosurabalpin]
- MIC (Acinetobacter baumannii, isolate 1866370, 20% HS): 0.25 µg/mL (≈ 0.316 µM)
- MIC (Acinetobacter baumannii, isolate 1866376, 20% HS): 0.25 µg/mL (≈ 0.316 µM)
- MIC (Acinetobacter baumannii, isolate 1868315, 20% HS): 0.5 µg/mL (≈ 0.632 µM)
- MIC (Acinetobacter baumannii, isolate 1869068, 20% HS): 1 µg/mL (≈ 1.26 µM)
- MIC (Acinetobacter baumannii, isolate 1869084, 20% HS): 4 µg/mL (≈ 5.06 µM)
- MIC (Acinetobacter baumannii, isolate 1869085, 20% HS): 1 µg/mL (≈ 1.26 µM)
- MIC (Acinetobacter baumannii, isolate 1869086, 20% HS): 1 µg/mL (≈ 1.26 µM)
- MIC (Acinetobacter baumannii, isolate 1869087, 20% HS): 1 µg/mL (≈ 1.26 µM)
- MIC (Acinetobacter baumannii, isolate 1869088, 20% HS): 0.5 µg/mL (≈ 0.632 µM)
- MIC (Acinetobacter baumannii, isolate 1869089, 20% HS): 0.25 µg/mL (≈ 0.316 µM)
- MIC (Acinetobacter baumannii, isolate 1869090, 20% HS): 0.25 µg/mL (≈ 0.316 µM)
- MIC (Acinetobacter baumannii, isolate 1869091, 20% HS): 0.25 µg/mL (≈ 0.316 µM)
- MIC (Acinetobacter baumannii, isolate 1869093, 20% HS): 0.25 µg/mL (≈ 0.316 µM)
- MIC (Acinetobacter baumannii, isolate 1869173, 20% HS): 0.25 µg/mL (≈ 0.316 µM)
- MIC (Acinetobacter baumannii, isolate 1870044, 20% HS): 0.03 µg/mL (≈ 0.0379 µM)
- MIC (Acinetobacter baumannii, isolate 1870131, 20% HS): 1 µg/mL (≈ 1.26 µM)
- MIC (Acinetobacter baumannii, isolate 1870152, 20% HS): 0.25 µg/mL (≈ 0.316 µM)
- MIC (Acinetobacter baumannii, isolate 1870171, 20% HS): 0.5 µg/mL (≈ 0.632 µM)
- MIC (Acinetobacter baumannii, isolate 1871948, 20% HS): 1 µg/mL (≈ 1.26 µM)
- MIC (Acinetobacter baumannii, isolate 1872001, 20% HS): 0.25 µg/mL (≈ 0.316 µM)
- MIC (Acinetobacter baumannii, isolate 1872360, 20% HS): 4 µg/mL (≈ 5.06 µM)
- MIC (Acinetobacter baumannii, isolate 1887389, 20% HS): 0.06 µg/mL (≈ 0.0759 µM)
- MIC (Acinetobacter baumannii, isolate 1887397, 20% HS): 0.06 µg/mL (≈ 0.0759 µM)
- MIC (Acinetobacter baumannii, isolate 1887497, 20% HS): 0.06 µg/mL (≈ 0.0759 µM)
- MIC (Acinetobacter baumannii, isolate 1887498, 20% HS): 0.06 µg/mL (≈ 0.0759 µM)
- MIC (Acinetobacter baumannii, isolate 1897312, 20% HS): 0.03 µg/mL (≈ 0.0379 µM)
- MIC (Acinetobacter baumannii, isolate 1897314, 20% HS): 0.25 µg/mL (≈ 0.316 µM)
- MIC (Acinetobacter baumannii, isolate 1897317, 20% HS): 0.25 µg/mL (≈ 0.316 µM)
- MIC (Acinetobacter baumannii, isolate 1914727, 20% HS): 0.5 µg/mL (≈ 0.632 µM)
- MIC (Acinetobacter baumannii, isolate 1914733, 20% HS): 0.06 µg/mL (≈ 0.0759 µM)
- MIC (Acinetobacter baumannii, isolate 1930837, 20% HS): 0.06 µg/mL (≈ 0.0759 µM)
- MIC (Acinetobacter baumannii, isolate 1930840, 20% HS): 0.125 µg/mL (≈ 0.158 µM)
- MIC (Acinetobacter baumannii, mutations in adeRS): 1 to 8 µg/mL (≈ 1.26 to 10.1 µM)
- MIC90 (Acinetobacter baumannii, 129 clinical isolates, CAMHB + 20% HS, n = 1): 1 µg/mL
- Fold MIC increase (AdeR A91V vs parental): >4 - 32
- Fold MIC increase (AdeS D128E vs parental): 2
- Fold MIC increase (AdeS G160C vs parental): 4
- Fold MIC increase (AdeS G318S vs parental): 8
- Fold MIC increase (AdeS L197F vs parental): 4
- Fold MIC increase (AdeS R108S vs parental): 4
- Fold MIC increase (AdeS R152K vs parental): 4
- Fold MIC increase (AdeS T66S vs parental): 4
- Fold MIC increase (LptF (G326_E327)del vs parental): 64 - 128 ^a
- Fold MIC increase (LptF (I319_K320)N vs parental): >256
- Fold MIC increase (LptF (K320)del vs parental): >256
- Fold MIC increase (LptF (K320)dup vs parental): 256
- Fold MIC increase (LptF (V314_L315)del vs parental): 128
- Fold MIC increase (LptF A318E vs parental): 32
- Fold MIC increase (LptF E58G vs parental, CAMHB + 20% HS): 8
- Fold MIC increase (LptF E58K vs parental): >256
- Fold MIC increase (LptF E249K vs parental): 32 - 256 ^a
- Fold MIC increase (LptF I317L vs parental): 32 - 64
- Fold MIC increase (LptF I317N vs parental): >256
- Fold MIC increase (LptF I317S vs parental): 256
- Fold MIC increase (LptF I317T vs parental): 32
- Fold MIC increase (LptF I323K vs parental): 64 - 128 ^a
- Fold MIC increase (LptF I323R vs parental): 4 - 256 ^a
- Fold MIC increase (LptF K320E vs parental): 256
- Fold MIC increase (LptF K320N vs parental): 64
- Fold MIC increase (LptF K320Q vs parental): 32
- Fold MIC increase (LptF K320T vs parental): 16
- Fold MIC increase (LptF L62H vs parental): 64 - 256 ^a
- Fold MIC increase (LptF R322C vs parental): 32 - 128 ^a
- Fold MIC increase (LptF R322G vs parental): 8 - 16 ^a
- Fold MIC increase (LptF R322L vs parental): 32 - 64 ^a
- Fold MIC increase (LptF R322S vs parental): 16
- Fold MIC increase (LptF T121K vs parental): 8
